Test results: ChEMBL document CHEMBL1143674, “Isoprenylated flavonoids from the stem bark of Erythrina abyssinica” (J Nat Prod, 2007)

Target: T1, Tyrosine-protein phosphatase non-receptor type 1 (Homo sapiens, UniProt P18031)
T1 sequence (P18031 whole entry): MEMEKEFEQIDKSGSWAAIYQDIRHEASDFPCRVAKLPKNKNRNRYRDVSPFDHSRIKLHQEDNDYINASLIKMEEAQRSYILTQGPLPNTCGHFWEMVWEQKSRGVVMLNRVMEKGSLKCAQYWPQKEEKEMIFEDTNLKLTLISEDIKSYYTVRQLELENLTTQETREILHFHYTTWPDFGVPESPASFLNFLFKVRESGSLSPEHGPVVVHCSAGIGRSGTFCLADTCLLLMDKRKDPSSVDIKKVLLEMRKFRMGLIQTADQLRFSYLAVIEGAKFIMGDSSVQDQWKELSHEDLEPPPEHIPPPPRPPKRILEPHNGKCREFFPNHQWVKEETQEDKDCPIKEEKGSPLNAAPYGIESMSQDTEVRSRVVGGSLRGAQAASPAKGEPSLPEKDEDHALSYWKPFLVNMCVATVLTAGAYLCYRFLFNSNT
Experiment: Inhibition of human recombinant PTP1B

| SMILES | IC50 [µM] |
| --- | --- |
| CC(C)=CCc1cc([C@@H]2CC(=O)c3c(O)cc(O)cc3O2)c(CC=C(C)C)c(O)c1O [SIGMOIDIN A] | 14.4 |
| CC(C)=CCc1cc(-c2cc(=O)c3c(O)cc(O)cc3o2)ccc1O | 26.7 |
| CC(C)=CCc1cc(/C=C/C(=O)c2ccc(O)cc2O)cc(CC=C(C)C)c1O [ABYSSINONE VI] | 20.6 |
| CC(C)=CCc1cc(/C=C/C(=O)c2ccc(O)cc2O)ccc1O [LICOAGROCHALCONE A] | 16.9 |
| CC1(C)C=Cc2cc([C@@H]3CC(=O)c4c(O)cc(O)cc4O3)cc(O)c2O1 [SIGMOIDIN C] | > 60 |
| CC1(C)C=Cc2cc([C@@H]3CC(=O)c4c(O)cc(O)cc4O3)ccc2O1 [ABYSSINOFLAVONE V] | > 60 |
| CC(C)=CCc1c([C@H]2CC(=O)c3c(O)cc(O)cc3O2)cc2c(c1O)OC(C)(C)C=C2 [SIGMOIDIN F] | 14.2 |
| CC(C)=CCc1cc([C@@H]2CC(=O)c3c(O)cc(O)cc3O2)cc2ccoc12 [ABYSSINOFLAVANONE VI] | 18.9 |
| COc1cc([C@@H]2CC(=O)c3ccc(O)cc3O2)cc(CC=C(C)C)c1O | 19.2 |
| COc1cc(C2CC(=O)c3c(O)cc(O)cc3O2)cc2c1OC(C)(C)C=C2 (stereo not drawn) [ABYSSININ I] | 18.2 |
| C=C(C)C(O)Cc1cc([C@@H]2CC(=O)c3c(O)cc(O)cc3O2)cc(CC=C(C)C)c1O (stereo partly drawn) [ABYSSINOFLAVANONE VII] | 15.7 |
| CC(C)=CCc1cc([C@@H]2CC(=O)c3c(O)cc(O)cc3O2)cc(O)c1O [SIGMOIDIN B] | 19.4 |
| COc1cc([C@@H]2CC(=O)c3c(O)cc(O)cc3O2)cc(CC=C(C)C)c1O [ABYSSININ II] | 17.3 |
